Test [1] deals with T1, Alkaline phosphatase, tissue-nonspecific isozyme (Homo sapiens, UniProt P05186).
T1 sequence (P05186 whole entry): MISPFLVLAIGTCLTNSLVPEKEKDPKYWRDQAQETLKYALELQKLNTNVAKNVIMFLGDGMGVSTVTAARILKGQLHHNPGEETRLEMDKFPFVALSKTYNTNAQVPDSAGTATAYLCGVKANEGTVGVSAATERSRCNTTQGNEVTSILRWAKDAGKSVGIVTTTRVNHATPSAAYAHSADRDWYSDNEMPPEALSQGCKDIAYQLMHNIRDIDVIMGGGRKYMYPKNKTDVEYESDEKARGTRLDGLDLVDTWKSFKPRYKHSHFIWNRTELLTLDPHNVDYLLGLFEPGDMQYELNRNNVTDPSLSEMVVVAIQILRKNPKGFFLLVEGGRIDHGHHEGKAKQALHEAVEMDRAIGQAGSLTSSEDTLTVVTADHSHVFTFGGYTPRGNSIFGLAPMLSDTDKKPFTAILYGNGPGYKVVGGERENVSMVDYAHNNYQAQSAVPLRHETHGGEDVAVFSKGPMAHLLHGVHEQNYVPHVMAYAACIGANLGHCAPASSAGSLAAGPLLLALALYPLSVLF
The test is described as follows: potency against alkaline phosphatase TNAP – biochemical, luminescent, dose response, SAR follow-up (AID 1056).

The target in test [2] is Glyceraldehyde-3-phosphate dehydrogenase (Homo sapiens, UniProt P04406).
Chain of Glyceraldehyde-3-phosphate dehydrogenase (P04406 whole entry): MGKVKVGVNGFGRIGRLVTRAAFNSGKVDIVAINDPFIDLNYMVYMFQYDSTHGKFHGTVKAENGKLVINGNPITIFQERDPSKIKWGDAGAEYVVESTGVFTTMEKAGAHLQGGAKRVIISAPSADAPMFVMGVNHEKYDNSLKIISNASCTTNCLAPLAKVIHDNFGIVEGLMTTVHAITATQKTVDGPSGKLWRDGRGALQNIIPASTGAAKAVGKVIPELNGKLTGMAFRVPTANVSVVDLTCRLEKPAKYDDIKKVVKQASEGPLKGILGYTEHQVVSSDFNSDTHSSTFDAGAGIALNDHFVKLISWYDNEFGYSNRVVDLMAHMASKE
The next test deals with Nonstructural protein 1 (Influenza A virus, UniProt Q194T2). Format: functional, Influenza A virus (A/California/07/2009(H1N1)).
Chain of Nonstructural protein 1 (Q194T2 whole entry): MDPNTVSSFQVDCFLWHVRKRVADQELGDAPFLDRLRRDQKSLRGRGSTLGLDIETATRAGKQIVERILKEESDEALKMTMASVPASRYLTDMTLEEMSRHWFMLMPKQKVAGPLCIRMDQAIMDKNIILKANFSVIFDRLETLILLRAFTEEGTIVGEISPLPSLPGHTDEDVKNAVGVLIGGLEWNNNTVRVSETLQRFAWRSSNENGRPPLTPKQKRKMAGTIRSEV
The target in another test is Large T antigen (Simian virus 40, UniProt P03070). It is filed as functional, Betapolyomavirus macacae.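 Note: Confirmatory-stage PubChem screen for compounds that inhibit SV40 T antigen.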
Chain of Large T antigen (P03070 whole entry): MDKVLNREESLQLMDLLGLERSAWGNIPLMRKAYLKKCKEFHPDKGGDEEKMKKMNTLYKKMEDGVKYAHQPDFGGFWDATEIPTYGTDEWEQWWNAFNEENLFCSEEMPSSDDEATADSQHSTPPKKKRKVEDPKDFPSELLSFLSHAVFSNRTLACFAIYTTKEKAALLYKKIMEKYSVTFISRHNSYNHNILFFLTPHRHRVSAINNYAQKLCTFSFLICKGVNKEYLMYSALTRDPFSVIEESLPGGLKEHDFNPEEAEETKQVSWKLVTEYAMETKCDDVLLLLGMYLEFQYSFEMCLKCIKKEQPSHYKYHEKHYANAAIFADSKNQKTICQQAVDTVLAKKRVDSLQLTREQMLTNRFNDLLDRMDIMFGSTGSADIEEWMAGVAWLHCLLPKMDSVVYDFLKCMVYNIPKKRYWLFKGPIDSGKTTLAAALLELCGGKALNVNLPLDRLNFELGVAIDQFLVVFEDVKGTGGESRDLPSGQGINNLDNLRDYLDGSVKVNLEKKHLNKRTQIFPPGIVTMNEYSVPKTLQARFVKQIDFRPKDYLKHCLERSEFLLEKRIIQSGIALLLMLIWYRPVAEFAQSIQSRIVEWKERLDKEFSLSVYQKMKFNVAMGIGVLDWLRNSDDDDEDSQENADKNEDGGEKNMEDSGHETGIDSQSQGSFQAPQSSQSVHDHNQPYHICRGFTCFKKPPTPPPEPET
Test [3] has as its target FAD-linked sulfhydryl oxidase ALR (Homo sapiens, UniProt P55789). Nature of the test: ALR-catalysed DTT oxidation blockers – biochemical, H2O2 detection, luminescence, cherry-pick, dose response (AID 493248).
Test [4] can be described thus: luciferase reporter signal suppression in cells – H4 neuroglioma cells, luminescence, dose response (AID 1990). It is filed as functional, cell-based. (In general: A reporter such as luciferase makes a cellular process visible.)
Test [5] can be described thus: Vero E6 cell cytotoxicity, dose response, cytotoxicity control for non-replicating M. tuberculosis project, secondary assay (AID 492998). It is filed as functional, VeroE6. The settings on record: Vero C1008.
A short description of test [6]: cells. Format: functional, cell-based.
The nature of test [7]: cells. It is filed as functional.
The nature of test [8]: Luminescence Cell-Based Dose Response HTS to Identify Inhibitors of 5'UTR Stem-Loop Driven Prion Protein mRNA Translation in H4 Neuroglioblastoma Cells. [Related pubchem assays: 1827 (Project Summary), 1813 (Primary HTS)]. Format: functional.
Test [9] in a line: THP-1 cell cytotoxicity, dose response, cytotoxicity control for non-replicating M. tuberculosis project (AID 489025). It is filed as functional.
Test [10] is described as follows: cells. It is filed as functional, cell-based. The source holds these as a separate data set.
Test [11] is described as follows: alpha-synuclein stem-loop luciferase translation blockers – H4 neuroglioma cells, luminescence, confirmation (AID 1988). Format: functional, cell-based.
Test [12] concerns the target T2, Short transient receptor potential channel 4 (Mus musculus, UniProt Q9QUQ5).
T2 sequence (Q9QUQ5 whole entry): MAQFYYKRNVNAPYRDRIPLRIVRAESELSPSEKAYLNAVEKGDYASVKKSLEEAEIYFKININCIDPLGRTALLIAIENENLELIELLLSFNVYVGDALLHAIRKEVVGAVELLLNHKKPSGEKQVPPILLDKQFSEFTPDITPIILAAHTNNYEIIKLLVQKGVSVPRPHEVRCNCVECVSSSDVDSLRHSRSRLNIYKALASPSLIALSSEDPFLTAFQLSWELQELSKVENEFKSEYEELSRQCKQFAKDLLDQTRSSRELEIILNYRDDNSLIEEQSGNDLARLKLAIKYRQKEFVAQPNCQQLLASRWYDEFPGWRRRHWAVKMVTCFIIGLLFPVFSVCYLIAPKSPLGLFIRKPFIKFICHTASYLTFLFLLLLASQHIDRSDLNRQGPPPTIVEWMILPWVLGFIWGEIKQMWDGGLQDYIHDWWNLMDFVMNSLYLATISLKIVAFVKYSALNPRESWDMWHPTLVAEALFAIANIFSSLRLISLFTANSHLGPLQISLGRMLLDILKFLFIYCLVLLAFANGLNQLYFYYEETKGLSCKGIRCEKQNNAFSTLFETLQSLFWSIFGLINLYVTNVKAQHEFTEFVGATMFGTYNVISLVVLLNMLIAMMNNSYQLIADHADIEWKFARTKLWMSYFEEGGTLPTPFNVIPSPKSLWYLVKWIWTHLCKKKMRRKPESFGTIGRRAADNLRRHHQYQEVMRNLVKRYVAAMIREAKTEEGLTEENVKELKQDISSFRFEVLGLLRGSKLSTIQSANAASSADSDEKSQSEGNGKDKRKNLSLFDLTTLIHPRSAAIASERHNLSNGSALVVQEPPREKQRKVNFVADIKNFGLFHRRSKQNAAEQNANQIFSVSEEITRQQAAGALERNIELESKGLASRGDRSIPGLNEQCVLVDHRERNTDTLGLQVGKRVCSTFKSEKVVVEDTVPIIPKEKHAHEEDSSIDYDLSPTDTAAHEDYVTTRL
Nature of the test: calcium entry via TRPC4 opening agents – cell-based, HEK293 TRPC4/mu-opioid, Fluo-4 calcium, dose response (AID 434937). Format: functional.

The nature of test [13]: NIH-3T3 fibroblast cytotoxicity, dose response, cytotoxicity control, cell-based, fluorescence, Alamar Blue, secondary assay (AID 2327).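 Note: NIH-3T3 mouse fibroblasts cultured with fluconazole at 8 µg/mL.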 Format: functional. In general terms: Alamar Blue is a resazurin reagent that responds to reducing activity.
Test [14] has as its system Vero. Nature of the test: cells. It is filed as functional. Conditions: Chlorocebus sabaeus.
For test [15], the system named is Streptococcus sp. 'group A'. Nature of the test: Streptococcus pyogenes SK(-)GAS viability under kanamycin – luminescence, BacTiterGlo, confirmation, counter-screen for streptokinase expression inhibitor project, dose response (AID 1900). It is filed as functional, organism-based. Background: A counterscreen serves to expose hits that act by an unwanted route or on another target.

The next test has as its system Streptococcus. The test is described as follows: GAS UMAA2166 growth inhibition – luminescence, BacTiterGlo, counter-screen for streptokinase expression inhibitor project, dose response (AID 1915).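 Note: potency for reduction of bacterial viability or growth.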 It is filed as functional, organism-based.
The target of test [16] is T2, Short transient receptor potential channel 4. The test is described as follows: block of DAMGO-driven TRPC4 calcium entry – cell-based, HEK293 TRPC4/mu-opioid, Fluo-4 calcium, dose response (AID 434942).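 Note: potency of inhibitors blocking the TRPC4 calcium response.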 It is filed as functional.
Test [17] can be described thus: fluconazole-exposed Candida albicans growth modulators – fluorescence, retest, confirmation (AID 2467). Format: functional, cell-based.
The subject of test [18] is Vero. Nature of the test: cells. Conditions: Chlorocebus sabaeus. Format: functional, cell-based.
Test [19] in a line: microbe, parasite or virus in culture. It is filed as functional. The settings on record: Mycobacterium tuberculosis.
Test [20] concerns the target DNA dC->dU-editing enzyme APOBEC-3G (Homo sapiens, UniProt Q9HC16). Nature of the test: Dose Response confirmation of small molecule APOBEC3G DNA Deaminase Inhibitors via a fluorescence-based single-stranded DNA deaminase assay. [Related pubchem assays (depositor defined):AID493012, AID493028]. Format: functional.
Test [21] has as its target Glucose-6-phosphate 1-dehydrogenase (Homo sapiens, UniProt P11413). The test is described as follows: inhibition of Homo sapiens G6PD, dose series – biochemical, fluorescence, selectivity assay for P. falciparum G6PD inhibitor project, dose response (AID 504792). Format: functional.
Test [22] addresses T3, Heat shock factor protein 1 (Mus musculus, UniProt P38532).
T3 sequence (P38532 whole entry): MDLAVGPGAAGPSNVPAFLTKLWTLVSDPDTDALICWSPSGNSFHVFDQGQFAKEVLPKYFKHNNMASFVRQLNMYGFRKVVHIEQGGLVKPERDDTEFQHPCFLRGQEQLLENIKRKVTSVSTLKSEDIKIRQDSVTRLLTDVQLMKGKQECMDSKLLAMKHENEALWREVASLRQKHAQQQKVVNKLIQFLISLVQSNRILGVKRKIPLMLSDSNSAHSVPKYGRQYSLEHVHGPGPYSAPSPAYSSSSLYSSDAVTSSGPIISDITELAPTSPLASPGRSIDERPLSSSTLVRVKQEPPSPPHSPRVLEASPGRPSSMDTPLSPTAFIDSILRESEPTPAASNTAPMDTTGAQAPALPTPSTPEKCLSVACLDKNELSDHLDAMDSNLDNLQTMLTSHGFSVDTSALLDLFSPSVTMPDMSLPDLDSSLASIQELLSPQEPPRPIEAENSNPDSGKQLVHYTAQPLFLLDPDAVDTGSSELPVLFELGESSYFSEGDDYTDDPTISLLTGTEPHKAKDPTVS
The test is described as follows: decrease of HSF1-responsive luciferase luminescence – cell-based, NIH3T3, dose retest, confirmation (AID 2382).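 Note: NIH3T3 fibroblasts with HSF1-driven luciferase reporter stressed by proteasome inhibitor MG132; luminescence from HSF1-driven luciferase expression after 8 hours of MG132 stress.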 Format: functional.

Test [23] concerns the target T4, Rac GTPase-activating protein 1 (Homo sapiens, UniProt Q9H0H5).
T4 sequence (Q9H0H5 whole entry): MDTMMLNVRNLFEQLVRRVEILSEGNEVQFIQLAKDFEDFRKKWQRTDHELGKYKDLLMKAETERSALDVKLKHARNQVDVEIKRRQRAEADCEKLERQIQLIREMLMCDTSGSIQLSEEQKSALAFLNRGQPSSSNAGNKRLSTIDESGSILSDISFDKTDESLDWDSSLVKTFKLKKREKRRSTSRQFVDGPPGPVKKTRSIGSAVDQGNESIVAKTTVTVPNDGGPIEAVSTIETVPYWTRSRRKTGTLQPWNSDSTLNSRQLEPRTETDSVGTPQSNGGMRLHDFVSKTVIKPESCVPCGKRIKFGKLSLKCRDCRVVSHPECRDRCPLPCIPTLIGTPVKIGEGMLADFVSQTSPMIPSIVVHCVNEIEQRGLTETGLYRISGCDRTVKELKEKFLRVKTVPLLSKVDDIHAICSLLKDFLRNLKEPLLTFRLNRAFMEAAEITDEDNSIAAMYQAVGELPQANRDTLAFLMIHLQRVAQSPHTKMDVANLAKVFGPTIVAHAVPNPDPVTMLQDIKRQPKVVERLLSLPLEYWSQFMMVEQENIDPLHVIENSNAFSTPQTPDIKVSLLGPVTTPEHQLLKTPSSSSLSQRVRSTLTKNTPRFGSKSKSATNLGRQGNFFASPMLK
The test is described as follows: blockers of MgcRacGAP-driven Rac1 GTP hydrolysis – biochemical, ADP Hunter fluorescence, primary and confirmatory, confirmation (AID 624330). Format: functional.

The source made the active and inactive calls.

Chain of DNA dC->dU-editing enzyme APOBEC-3G (Q9HC16 whole entry): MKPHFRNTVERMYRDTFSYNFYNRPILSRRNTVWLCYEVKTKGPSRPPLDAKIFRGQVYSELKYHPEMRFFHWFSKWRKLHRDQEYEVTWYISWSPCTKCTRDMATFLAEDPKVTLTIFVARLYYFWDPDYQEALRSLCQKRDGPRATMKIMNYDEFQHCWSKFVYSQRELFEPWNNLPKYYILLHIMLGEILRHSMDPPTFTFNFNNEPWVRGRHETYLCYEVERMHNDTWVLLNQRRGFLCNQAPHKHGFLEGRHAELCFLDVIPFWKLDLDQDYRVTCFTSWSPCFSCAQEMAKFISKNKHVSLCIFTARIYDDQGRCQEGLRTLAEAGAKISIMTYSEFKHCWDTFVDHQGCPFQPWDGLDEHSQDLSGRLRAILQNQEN
Chain of FAD-linked sulfhydryl oxidase ALR (P55789 whole entry): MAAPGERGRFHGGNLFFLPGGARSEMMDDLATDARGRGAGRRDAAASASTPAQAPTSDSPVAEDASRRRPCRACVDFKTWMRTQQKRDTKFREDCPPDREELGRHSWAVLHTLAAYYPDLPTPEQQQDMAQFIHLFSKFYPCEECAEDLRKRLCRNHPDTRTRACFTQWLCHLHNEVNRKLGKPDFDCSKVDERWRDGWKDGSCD
Chain of Glucose-6-phosphate 1-dehydrogenase (P11413 whole entry): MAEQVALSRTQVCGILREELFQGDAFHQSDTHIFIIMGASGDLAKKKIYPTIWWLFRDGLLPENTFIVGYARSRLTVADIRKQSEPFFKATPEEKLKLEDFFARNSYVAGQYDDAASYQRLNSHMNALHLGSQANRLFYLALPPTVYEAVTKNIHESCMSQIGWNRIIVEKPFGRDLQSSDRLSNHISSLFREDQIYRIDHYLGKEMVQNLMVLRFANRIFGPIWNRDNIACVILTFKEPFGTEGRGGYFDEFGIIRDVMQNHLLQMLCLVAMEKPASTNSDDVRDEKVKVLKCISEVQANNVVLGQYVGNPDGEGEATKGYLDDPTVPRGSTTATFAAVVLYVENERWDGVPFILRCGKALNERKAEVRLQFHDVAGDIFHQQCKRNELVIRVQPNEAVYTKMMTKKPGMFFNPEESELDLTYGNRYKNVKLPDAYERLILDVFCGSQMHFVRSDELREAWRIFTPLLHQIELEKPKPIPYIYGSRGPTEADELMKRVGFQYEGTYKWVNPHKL

Broadly, the IC50 is the concentration that gives 50% inhibition. `c1cnc(-c2cccnc2)nc1`: the results for the IC50 in test [1] and in [2] were > 100 µM (inactive) and > 100 µM (not active), respectively.
By AC50 is commonly meant the concentration at which the activity in the assay is half-maximal. For orientation: EC50 means the concentration at which the effect is half-maximal. For `Cc1ccccc1Nc1c(-c2ccccn2)nc2ccccn12`, the half-maximal inhibitory concentration (IC50) was 14.7 µM (active) on Nonstructural protein 1, < 0.39 µM (active) on Large T antigen and 1.75 µM (active) in the test “cells [7]”. The AC50 in test [3] was 1.37 µM (active). In addition, the concentration for a half-maximal effect (EC50) in test [4] is 11 µM (active); in “cells [6]” it was 221 µM (active); in test [8], 10.4 µM (active); in the test “cells [10]”, > 350 µM (not active); in test [11], 10.5 µM (active). For the same molecule, the CC50 is 3.7 µM (active) in [5] and 13.7 µM (active) in test [9].
Regarding `CCn1cnc(-c2cccnc2)c1`, the values for the IC50 in test [1] and in test [2] were > 100 µM (inactive) and > 100 µM (not active), respectively.
Turning to `CC(C)(C)c1ccc(C(=O)NC(=S)NNC(=O)COc2ccccc2)cc1`, the half-maximal effective concentration (EC50) in test [12] was 5.96 µM (active); in test [13], > 150 µM (inactive); in test [15], 0.067 µM (active); in the test with Streptococcus, 1.76 µM (active); in [16], 6.68 µM (active); in test [17], 1.58 µM (active). For the same molecule, the CC50 is > 25 µM (active) with Vero [14] and 34.1 µM (active) in test [19]. Also, the half-inhibitory concentration (IC50) with Vero [18] was 23 µM (active).
Consider `COc1cccc(Cn2c(Oc3ccccc3)nc3c2c(=O)n(C)c(=O)n3C)c1`, for which the EC50 in test [16] was 7.5 µM (active).
Consider `O=C(N/N=C/c1cc([N+](=O)[O-])ccc1O)C12CC3CC(CC(C3)C1)C2`, for which the results for the CC50 in test [5] and in test [9] were > 20 µM (active) and 21 µM (active), respectively. Further, the 50% inhibitory concentration (IC50) in “cells [7]” is 16.3 µM (active).
As for `CN(CC(=O)NC1CCCc2ccccc21)C1CCCCC1` (configuration not stated), the EC50 in test [16] is 13.3 µM (active).
Take `O=C(O)c1cc(-c2ccc3c(c2)OCCO3)n[nH]1`: the figures for the IC50 in test [1] and in test [2] were 49.8 µM (active) and > 100 µM (not active), respectively.
With `COC(=O)[C@H](CCSC)NC(=O)c1cc2c3ccccc3nc-2c[nH]1`, the 50% inhibitory concentration (IC50) was 59.6 µM (active) in test [20] and > 80 µM (inactive) in test [21].
Take `COc1ccccc1NC(=O)c1ccc([N+](=O)[O-])o1`: the CC50 in test [5] was 5.96 µM (active); in [9], 17.5 µM (active). The IC50 in “cells [7]” was 9.55 µM (active). Besides, the EC50 in test [22] was > 195 µM (not active).
Consider `O=c1c2ccccc2[nH]c(=S)n1Cc1cccnc1`, for which the EC50 in [12] was 2.66 µM (active); in test [16], 3.35 µM (active).
Consider `O=S(=O)(N=S1CC=CCN1S(=O)(=O)c1ccccc1)c1ccccc1` (configuration not stated), for which the AC50 in test [3] was 2.19 µM (active). Besides, the 50% inhibitory concentration (IC50) was 2.32 µM (active) in test [20] and 105 µM (active) in [23].

Source of the values: ChEMBL document CHEMBL1201862, “PubChem BioAssay data set” (2004).
